Test results: patent US11213522B2, “Autoimmune-induced glutamatergic receptor dysfunction methods and treatments” (SARAH HERZOG MEMORIAL HOSPITAL EZRAT NASHIM ASSOCIATION, priority 2013, dated 2022)

Assays:
[1] = system: patient positive for anti-NR1 NMDAR antibodies; test: Flanker Task; type: in vivo, human; conditions: post-6 weeks D-serine
Experimental: The trial consisted of two periods, starting with a 2 week lead-in/stabilization period (−2-0) following which the patient was entered in the second period of the study which consisted of a 6 week (0-6), open-label, fixed dose therapy phase. During this phase, the patient received adjuvant treatment with DSR, whose dose was increased from 1500 mg/day (week 1) to 2000 mg/day (weeks 2 and 3) to 3000 mg/day (weeks 4 and 5) and to 4000 mg/day (week 6). The doses of the ongoing medication received by the patient remained fixed throughout the study and no changes in medication were performed.
In addition, cognitive performance was assessed pre- and post DSR treatment. For this purpose, a 1.5-hour neurocognitive assessment battery (nine computerized and two paper/pencil tests) was employed that measures accuracy and speed of performance in major cognition domains, including attention/vigilance, planning, short-term and working memory, decision making, abstraction and mental flexibility. All the tests were formatted like games and puzzles, and were administered to the patient as part of the comprehensive neuropsychiatric assessment at baseline and the end of study. The neurocognitive battery included the 1) Test of Attentional Vigilance (TOAV, (Forbes, 1998, Journal of Clinical Psychology 54:461-476; Greenberg, 1993, Journal of Child Psychology and Psychiatry 34: 1019-30)); 2) Tower of London (TOL, (Shailice, 1982, Specific impairments of planning Philosophical Transactions of the Royal Society of London. Series B, Biological Sciences 298:199-209); 3-4) Digit Span Test (DST, forward and backward (Wechsler 1997, The Wechsler adult intelligence scale-III. San Antonio, Tex.: Psychological Corporation; Kaplan 1991, The WAIS-R as a neuropsychological instrument. San Antonio, Tex.: The Psychological Corporation; Lamar et al., 2007, Neuropsychologia 45:245-54; Lamar et al., 2008, Neuropsychologia 46:2597-601)); 5-6) Corsi Block Tapping Test (CBTT, forward and backward, (Corsi, 1972, Dissertation Abstracts International. 34:819B; Kessels et al., 2000, Applied Neuropsychology 7:252-58, Kessels et al., 2008, Assessment 15:426-34)); 7) Flanker Task (Erikson and Eriksen, 1974; Perception & Psychophysics 25: 249-63, Stins et. al., 2007, Advances in Cognitive Psychology 3:389-96); 8) Time Wall (Perez et al., 1987, Unified Tri-services cognitive performance assessment battery: review and methodology; DTIC Document ADA181697, http://www.dtic.mil/dtic/tr/fulltext/u2/a81697.pdf); and Wisconsin Card Sort Test (WCST, (Berg, 1948, J Gen Psychol39:15-22; Nelson, 1976, Cortex 12:313-24)). In addition to the nine computerized tests, the patient completed two paper/pencil tests: 10-11) part A and part B of the Trail-Making-Test (TMT, (Reitan, 1958, Percept. Mot Skills 8:271-76; Reitan, 1992 Trail Making Test: Manual for administration and scoring. Tucson, Ariz.: Reitan Neuropsychology Laboratory)) according to the guidelines presented by Spreen and Strauss (1998)). All neurocognitive testing was completed in a private and quiet setting to limit any distractions.

[2] = system: patient positive for anti-NR1 NMDAR antibodies; test: Abnormal Involuntary Movement Scale (AIMS), D-serine clinical trial; type: in vivo, human; conditions: for AIMS: week 0 score 1
Text: Out of the seventeen patients that entered the study, the serum of one patient was strongly positive at both serum sample dilutions for the presence of both IgG and IgM classes of anti-NR1 NMDAR antibodies. The patient was a single person having a diagnosis of schizophrenia according to DSM-IV-R criteria (American Psychiatric Association, 2000 Diagnostic and Statistical Manual of Mental Disorders-(DSM-IV-TR), 4th edition. American Psychiatric Association Washington D.C. (Text Revision)). There was no history of mental disorder in the patient's family. The patient had completed post-high school studies and had worked as a secretary. After a period of continuous headaches, for which no organic basis had been found, they had abruptly developed an acute psychosis characterized by grandiose and paranoid delusions, mystical thinking, […] affect and agitation, They had been hospitalized in a psychiatric hospital and underwent treatment with antipsychotic drugs and electroconvulsive therapy with only partial response. The patient had never returned to their previous functional and except for short attempts at living in the community, has been hospitalized ever since. They have been refractory to treatment with various classes of antipsychotic drugs, was not diagnosed with any medical or neurological disorder and was maintained on sulpiride 50 mg/day, citalopram 40 mg/day, lorazepam 1 mg/day and promethazine 50 mg/day. […] DSR is a naturally occurring amino acid that acts in vivo as an obligatory co-agonist at the glycine modulatory site associated with NMDAR. […] Both acute and chronic administration of 1-2 g DSR in humans is known to result in ≥100 times increases in DSR serum levels (Kantrowitz et al., 2010, Schizophr Res121:125-30; Heresco-Levy et al., 2005, Biol Psychiatry 57:577-85). The trial consisted of two periods, starting with a 2 week lead-in/stabilization period (-2-0) following which the patient was entered in the second period of the study which consisted of a 6 week (0-6), open-label, fixed dose therapy phase. During this phase, the patient received adjuvant treatment with DSR, whose dose was increased from 1500 mg/day (week 1) to 2000 mg/day (weeks 2 and 3) to 3000 mg/day (weeks 4 and 5) and to 4000 mg/day (week 6). The doses of the ongoing medication received by the patient remained fixed throughout the study and no changes in medication were performed. The assessment procedures used in the study included clinical and neurocognitive examinations. Motor and psychiatric symptoms as well as side-effects were rated biweekly throughout the study. […] In conjunction with UKU ratings, patient's vital signs and body weight were monitored throughout the study.

[3] = acute and chronic administration of 1-2 g DSR in humans; cited from earlier work

## N[C@H](CO)C(=O)O [D-serine]
[1]; pre-treatment 0.450 ± 0.499
  Flanker Task Incongruous accuracy, mean ± SD: 0.575 ± 0.494 proportion correct
[1]; pre-treatment 0.475 ± 0.499
  Flanker Task Congruous accuracy, mean ± SD: 0.65 ± 0.476 proportion correct
  Flanker Task Neutral accuracy, mean ± SD: 0.65 ± 0.476 proportion correct
[1]; pre-treatment 725.03 ± 130.03
  Flanker Task Congruous response time, mean ± SD: 651.93 ± 130.16 milliseconds
[1]; pre-treatment 732.18 ± 127.96
  Flanker Task Neutral response time, mean ± SD: 688.23 ± 99.19 milliseconds
[1]; pre-treatment 737.38 ± 131.34
  Flanker Task Incongruous response time, mean ± SD: 713.3 ± 102.14 milliseconds
[2]; following DSR administration, minimal at baseline
  Motor symptomatology, as measured by AIMS and SAS scores: improvements were registered
[2]; study week 2
  AIMS: 0
[2]; study week 4
  AIMS: 0
[2]; study week 6
  AIMS: 0
[3]
  Increase in DSR serum levels: ≥ 100 times
